# Data reported in ChEMBL document CHEMBL1124550, “Replacement of the 3'-CH group by nitrogen in the carbocyclic analogue of thymidine” (J Med Chem, 1989).
# How the values were obtained:
# [1] = tested on: Human immunodeficiency virus 1; test: Antiviral activity against Human immunodeficiency virus 1 (HIV-1) up to 100 uM concentration; inactive; format: functional, organism-based
# HT-29 = test: Antitumor activity against colon carcinoma cell line (HT-29); format: functional, cell-based; settings: Homo sapiens
# MCF7 = test: Antitumor activity against breast carcinoma cell line (MCF-7M); format: functional, cell-based; settings: Homo sapiens
# Human alphaherpesvirus 1 = test: Antiviral activity against Herpes simplex virus type 1 (HSV-1) up to 100 uM concentration; inactive; format: functional, organism-based
# SK-MES-1 = test: Antitumor activity against lung carcinoma cell line (SK-MES-1); format: functional, cell-based; settings: Homo sapiens
SMILES,IC50 [1],IC50 (HT-29),IC50 (MCF7),IC50 (Human alphaherpesvirus 1),IC50 (SK-MES-1)
Cc1cn([C@@H]2C[C@H](CO)N(O)C2)c(=O)[nH]c1=O,Not Active,14000 nM,80 nM,Not Active,6910 nM
Cc1cn([C@@H]2C[C@H](CO)N(N=O)C2)c(=O)[nH]c1=O,Not Active,,,Not Active,
Cc1cn(C2CNC(CO)C2)c(=O)[nH]c1=O (centres undefined),Not Active,,,Not Active,
COC(=O)N1CC(n2cc(C)c(=O)[nH]c2=O)C[C@H]1CO (some centres undefined),Not Active,,,Not Active,
Cc1cn(C2C[C@@H](CO)N(C=O)C2)c(=O)[nH]c1=O (some centres undefined),Not Active,,,Not Active,
Cc1cn(C2C[C@@H](CO)N(CCC#N)C2)c(=O)[nH]c1=O (some centres undefined),Not Active,,,Not Active,
Cc1cn(C2C[C@@H](CO)N(C#N)C2)c(=O)[nH]c1=O (some centres undefined),Not Active,,,Not Active,
O=c1[nH]cc(F)c(=O)[nH]1 [FLUOROURACIL],,150 nM,,,310 nM
